From patent publication US10000438B2, “Small molecule inhibitors of TRPA1” (B.R.A.I.N. Biotechnology Research and Information Network AG, priority 2011, dated 2018) come the findings set out here.

Assay [1] deals with T1, TRPA1 (Homo sapiens, UniProt O75762). The assay can be described thus: Cell-based calcium assay (Fluo-4 fluorescence) in HEK293 cells expressing recombinant human TRPA1. The arrangement: expressed in transfected cells. As for the experimental part: The HEK293 cell line expressing recombinant human TRPA1 under the control of a tetracycline-regulated promoter was used in this assay (cf. example 2). Functional modulation of TRPA1 by the tested compounds was measured and quantified using the calcium sensitive fluorescent probe […] on a fluorescence microplate reader. Activation of TRPA1 by an agonist led to an increase in the intracellular calcium concentration and thus an increase in fluorescence intensity.
T1 sequence (O75762 whole entry): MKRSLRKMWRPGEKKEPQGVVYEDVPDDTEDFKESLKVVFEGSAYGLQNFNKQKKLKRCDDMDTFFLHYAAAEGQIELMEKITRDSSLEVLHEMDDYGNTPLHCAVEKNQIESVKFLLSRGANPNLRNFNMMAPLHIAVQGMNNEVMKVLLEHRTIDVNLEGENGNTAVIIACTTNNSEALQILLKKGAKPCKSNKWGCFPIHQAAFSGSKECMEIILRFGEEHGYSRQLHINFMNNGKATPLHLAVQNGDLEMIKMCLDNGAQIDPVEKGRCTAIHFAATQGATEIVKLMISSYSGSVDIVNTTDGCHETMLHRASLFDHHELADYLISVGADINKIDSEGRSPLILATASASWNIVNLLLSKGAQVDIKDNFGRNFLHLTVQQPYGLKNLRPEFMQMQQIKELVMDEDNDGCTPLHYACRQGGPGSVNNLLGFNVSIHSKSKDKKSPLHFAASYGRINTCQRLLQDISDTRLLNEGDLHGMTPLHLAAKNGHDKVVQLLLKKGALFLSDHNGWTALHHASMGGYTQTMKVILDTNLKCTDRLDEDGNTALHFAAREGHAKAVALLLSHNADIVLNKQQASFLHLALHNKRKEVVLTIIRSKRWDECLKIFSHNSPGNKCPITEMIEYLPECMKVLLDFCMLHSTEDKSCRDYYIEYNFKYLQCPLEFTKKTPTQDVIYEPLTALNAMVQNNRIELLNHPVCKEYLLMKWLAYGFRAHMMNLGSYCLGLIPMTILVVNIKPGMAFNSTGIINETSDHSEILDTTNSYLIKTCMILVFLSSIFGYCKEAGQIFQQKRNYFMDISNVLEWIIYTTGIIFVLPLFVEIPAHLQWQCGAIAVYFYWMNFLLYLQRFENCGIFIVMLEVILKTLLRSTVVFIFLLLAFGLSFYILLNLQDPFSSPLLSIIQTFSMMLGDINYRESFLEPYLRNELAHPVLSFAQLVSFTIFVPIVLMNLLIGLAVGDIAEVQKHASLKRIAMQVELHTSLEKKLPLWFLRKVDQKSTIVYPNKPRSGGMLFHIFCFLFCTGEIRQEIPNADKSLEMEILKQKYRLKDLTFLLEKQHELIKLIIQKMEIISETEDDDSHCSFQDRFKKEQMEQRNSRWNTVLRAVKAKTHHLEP
Procedure: Cells were cultured in DMEM (high glucose) supplemented with tetracycline-free FCS (10% v/v), L-glutamine (4 mM), blasticidin (15 μg/ml) and hygromycin (100 μg/mL) in a water-saturated atmosphere at 37° C. and 5% CO2. Cells were seeded onto 96-well clear-bottom black-walled assay plates at a density of 70,000 cells per well in 100 μl of cell culture medium. Expression of the ion channel was induced or not induced by addition of tetracycline (1 μg/ml final concentration) to the cell culture medium (while seeding the cells). Calcium influx into the living cells due to channel activation was monitored 24 h later using the calcium sensitive fluorescent probe […] on a fluorescence microplate reader (FlexStation® system, Molecular Devices). Therefore 100 μl Krebs-HEPES (KH) buffer (118 mM NaCl; 4.7 mM KCl; 1.3 mM CaCl2; 1.2 mM MgSO4; 1.2 mM KH2PO4; 4.2 mM NaHCO3; 10 mM Hepes, pH 7.4) supplemented with sulfinpyrazone (250 μM) and […] (4 μM) were added and the cells were incubated for an additional hour in a water-saturated atmosphere at 37° C. and 5% CO2.
Measurement of agonistic activity: Medium was replaced with 200 μl KH buffer supplemented with sulfinpyrazone (250 μM). Subsequently, 50 μl KH buffer supplemented with the agonists or control substances were added. Changes in fluorescence were recorded at 20-26° C.
Measurement of antagonistic activity (screening): Medium was replaced with 150 μl KH buffer supplemented with sulfinpyrazone (250 μM). Subsequently, 50 μl KH buffer supplemented with the screening compounds (50 μM; leading to a final concentration of 10 μM under measurement conditions) or control substances were added and the cells were incubated for 10 min. under assay conditions in the microplate reader. Changes in fluorescence were recorded at 20-26° C. after addition of 50 μl KH buffer supplemented with the TRPA1 agonist menthol (175 μM; leading to a final concentration of 35 μM under measurement conditions). The published TRPA1 antagonist AP-18 (Petrus, 2007) was used as a control for TRPA1-specific […] activity. Subsequently, the inventive compounds were tested for their capacity to reduce signals triggered by addition of propylparaben (EC80=80 μM), retinol (EC80=150 μM), and allyl isothiocyanate (EC80=5 μM) (cf. Table 2).
Analysis: Calcium mobilization was quantified as the change of peak fluorescence (ΔF) over the baseline level (F). The data was analyzed with the software of the microplate reader. Potential TRPA1 antagonists were tested in an effective range of 0.1-50 μM for their capacity to reduce the menthol-evoked signal.

Assay [2] has as its target T1, TRPA1. The assay can be described thus: Blinded in vivo study on the lid-cheek junction, stinging/burning induced by flufenamic acid. Conditions: compound 0.05% pre-incubated on one side of face, placebo on other; flufenamic acid 0.75%; 16 persons, two felt no stimulus. On the set-up: from tissue; host or cells: facial skin (lid-cheek junction) of human volunteers. As for the experimental part: Antagonistic in vivo activity at TRPA1 was tested in a blinded study on the lid-cheek junction of 16 test persons. The ion channel was stimulated using a known TRPA1 agonist: flufenamic acid, a member of the group of NSAIDs (non-steroidal anti-inflammatory drugs) (Hu et al., 2010). The concentration of flufenamic acid was adjusted to a level that induced a pronounced stinging/burning sensation in the majority of the testers (0.75%).
Procedure: One side of the face (the lid-cheek junction) was pre-incubated with the antagonist (compound I.3, 0.05%)—the other side with placebo. Afterwards, flufenamic acid was applied to both sides simultaneously. Testers were asked several questions regarding their individual perception of irritation.
Analysis: Testers were asked if they could feel the NSAID-triggered stinging/burning. The strength of the stimulus was not judged. Then they were asked if they could perceive a difference between the two areas. If the answer was yes, they were asked which side was perceived as more pleasant. The antagonistic effect was graded in three categories: no reduction, reduction and strong reduction of the irritation. 10 out of 14 testers perceived a soothing effect by the use of the antagonist (two individuals felt no stimulus at all).

For another assay, the target named is T2, human TRPM8 (Homo sapiens, UniProt Q7Z2W7).
T2 construct: expressed in transfected cells; host or cells: HEK293 (tetracycline-regulated promoter)
T2 sequence (Q7Z2W7 whole entry): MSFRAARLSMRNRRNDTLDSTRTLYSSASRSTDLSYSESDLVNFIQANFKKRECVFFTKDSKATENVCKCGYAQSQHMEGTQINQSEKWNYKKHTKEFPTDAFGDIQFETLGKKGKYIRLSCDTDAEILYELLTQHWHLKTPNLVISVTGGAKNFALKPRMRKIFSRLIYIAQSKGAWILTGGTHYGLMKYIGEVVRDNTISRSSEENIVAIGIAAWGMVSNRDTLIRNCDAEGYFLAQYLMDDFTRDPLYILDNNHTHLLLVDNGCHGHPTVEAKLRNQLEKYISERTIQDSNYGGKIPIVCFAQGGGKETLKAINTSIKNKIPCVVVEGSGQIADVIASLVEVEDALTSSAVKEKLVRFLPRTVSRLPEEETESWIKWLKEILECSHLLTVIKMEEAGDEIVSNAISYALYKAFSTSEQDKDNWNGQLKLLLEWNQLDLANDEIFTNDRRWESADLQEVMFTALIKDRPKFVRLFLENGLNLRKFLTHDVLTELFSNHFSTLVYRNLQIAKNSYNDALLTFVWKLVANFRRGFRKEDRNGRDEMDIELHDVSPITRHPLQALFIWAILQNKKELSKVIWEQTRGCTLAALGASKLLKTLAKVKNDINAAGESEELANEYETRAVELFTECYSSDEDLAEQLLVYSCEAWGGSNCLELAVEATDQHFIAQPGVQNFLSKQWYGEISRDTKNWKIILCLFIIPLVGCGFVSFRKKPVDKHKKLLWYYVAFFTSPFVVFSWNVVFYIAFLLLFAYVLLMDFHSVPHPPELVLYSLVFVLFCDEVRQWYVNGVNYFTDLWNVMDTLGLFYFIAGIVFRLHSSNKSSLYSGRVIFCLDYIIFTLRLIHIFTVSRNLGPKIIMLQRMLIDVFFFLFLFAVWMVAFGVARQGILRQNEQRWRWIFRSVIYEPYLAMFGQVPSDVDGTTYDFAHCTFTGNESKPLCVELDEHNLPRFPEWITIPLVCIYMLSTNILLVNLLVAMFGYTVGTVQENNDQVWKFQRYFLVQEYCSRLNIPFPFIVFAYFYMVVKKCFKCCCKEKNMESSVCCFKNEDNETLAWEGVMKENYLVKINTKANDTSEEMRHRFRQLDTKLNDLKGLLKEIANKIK
The assay can be described thus: Test for cross-selectivity on TRPM8: calcium assay in HEK293 cells expressing recombinant human TRPM8. Type of assay: cell-based. As for the experimental part:
The test for cross-selectivity of the compounds on TRPM8 was performed in much the same way as the initial screening on TRPA1 (described in example 3). A HEK293 cell line expressing recombinant human TRPM8 under the control of a tetracycline-regulated promoter was used. Cells were cultured under the conditions mentioned in example 3. Functional modulation of TRPM8 was measured and quantified using the calcium sensitive fluorescent probe Fluo-4 AM on a fluorescence microplate reader. The assay was performed as described in example 3. Changes in fluorescence were recorded at 26-30° C. after addition of the compounds and/or the TRPM8 agonist menthol (EC80=12 μM). Dose-response curves are shown in FIGS. 5 to 9 (calcium assay) against menthol, which is known to trigger both TRPA1 as well as TRPM8. In particular, the antagonistic activity of compound I.3, II.3, III.3, IV.3 and V.3 at TRPA1 (open circles, continuous line) as well as the antagonistic activity of said compounds at TRPM8 (filled squares, dotted line) was measured and compared. Activation of the two ion channels was triggered by addition of menthol (EC80[TRPA1]=35 μM and EC80[TRPM8]=12 μM). The receptor signals were normalized to the pure menthol signal in each case.

For assay [3], the target named is T1, TRPA1. The assay can be described thus: Cell-based (label-free) impedance assay in HaCaT cells.
Setting [4] is: agonist allyl isothiocyanate at EC80 (5 μM), read-out: Antagonistic activity (IC50) against Allyl isothiocyanate.
The mark [5] stands for this setting: agonist menthol at EC80 (35 μM final), read-out: Antagonistic activity (IC50) against Menthol.
[6] abbreviates: agonist propylparaben at EC80 (80 μM), read-out: Antagonistic activity (IC50) against Propylparaben.
[7] abbreviates: agonist retinol at EC80 (150 μM), read-out: Antagonistic activity (IC50) against Retinol.

Read-outs that look alike come from different tables or passages of the source.

Turning to `COc1cc(C(=O)OC2CC3CCC2(C)C3(C)C)ccc1OC(C)=O` (centres unmarked) [Compound I.3], the IC50 at TRPA1 [1] (setting [4]) is 2.5 µM; on TRPA1 [1] (setting [5]) it was 3.5 µM; on TRPA1 [1] (setting [6]) it was 4.7 µM; on TRPA1 [1] (setting [7]), 3.4 µM. In addition, the “Testers who perceived a soothing effect by the use of the antagonist” value at TRPA1 [2] is 10 out of 14.

For `COC(=O)c1ccc(/C=C(\C#N)C(=O)Nc2ccccc2F)cc1` [Compound III.3], the IC50 worked out at 1.2 µM at TRPA1 [1] (setting [4]), 0.1 µM on TRPA1 [1] (setting [5]), 0.4 µM at TRPA1 [1] (setting [6]) and 0.4 µM on TRPA1 [1] (setting [7]).

For `Cc1cc(/C=C2\C(=N)N3N=C(CC(=O)N4CCCC4)SC3=NC2=O)c(C)n1-c1cccc(Cl)c1` [Compound IV.3], the IC50 at TRPA1 [1] (setting [4]) worked out at 3.5 µM; at TRPA1 [1] (setting [5]), 0.3 µM; on TRPA1 [1] (setting [6]) it was 4.3 µM; on TRPA1 [1] (setting [7]), 3.3 µM.

Turning to `CC(C)c1ccc2c(c1)CCC1[C@](C)(C(=O)O)CCC[C@]21C` (some centres unmarked) [Compound V.3], the IC50 on TRPA1 [1] (setting [4]) was found to be 26 µM; on TRPA1 [1] (setting [5]), 4.5 µM; on TRPA1 [1] (setting [6]), 26 µM; on TRPA1 [1] (setting [7]) it was 14 µM.

Turning to `C=CCN=C=S` [allyl isothiocyanate, reference compound], the “Agonistic efficacy at TRPA1 (EC80)” value on TRPA1 [1] is 5 µM.

In the case of `CC1CCC(C(C)C)C(O)C1` (centres unmarked) [menthol, 2-isopropyl-5-methyl-cyclohexanol, reference compound], the “Agonistic efficacy at TRPM8 (EC80)” value on human TRPM8 was 12 µM. Moreover, the “Agonistic efficacy at TRPA1 (EC80)” value at TRPA1 [1] amounted to 35 µM.

Take `CCCOC(=O)c1ccc(O)cc1` [propylparaben, reference compound]: the “Agonistic efficacy at TRPA1 (EC80)” value at TRPA1 [3] turned out to be 200 µM; at TRPA1 [1] it was 80 µM.

With `CC1=C(/C=C/C(C)=C/C=C/C(C)=C/CO)C(C)(C)CCC1` [retinol, reference compound], the “Agonistic efficacy at TRPA1 (EC80)” value at TRPA1 [1] was 150 µM.
